{"source": "ChEMBL document CHEMBL4665911", "about": "“Novel Arginase Inhibitors for Treating Cancer and Respiratory Inflammatory Diseases” (ACS Med Chem Lett, 2020)", "target": "T1, Arginase-1 (Homo sapiens, UniProt P05089)", "T1 sequence (P05089 whole entry)": "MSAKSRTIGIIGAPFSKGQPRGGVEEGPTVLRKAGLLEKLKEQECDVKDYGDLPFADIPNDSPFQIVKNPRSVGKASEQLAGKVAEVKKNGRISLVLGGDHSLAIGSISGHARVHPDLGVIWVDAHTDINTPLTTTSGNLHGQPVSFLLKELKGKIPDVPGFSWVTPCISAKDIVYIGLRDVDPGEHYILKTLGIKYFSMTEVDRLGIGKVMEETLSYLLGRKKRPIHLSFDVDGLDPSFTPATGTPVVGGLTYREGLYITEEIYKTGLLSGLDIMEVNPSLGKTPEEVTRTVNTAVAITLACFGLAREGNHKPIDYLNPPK", "assay": "Inhibition of human recombinant arginase 1 expressed in Escherichia coli using thioarginine by Ellman's assay", "data": [{"smiles": "N[C@H]1CCN[C@@](CCCCB(O)O)(C(=O)O)C1", "values": [{"measurement": "IC50", "result": 30, "unit": "nM"}]}]}
